Results reported in patent US10167284B2, “Spirocyclic compounds as agonists of the muscarinic M1 receptor and/or M4 receptor” (HEPTARES THERAPEUTICS LIMITED, priority 2015, dated 2019).

Legend:
[1] = system: d-amphetamine induced hyperactivity in rats; test: d-Amphetamine-induced hyperactivity in rats; type: in vivo; details: positive control dose, previously observed
Experimental: Effect of a Novel Test Compound and Xanomeline on d-Amphetamine-Induced Hyperactivity in Rats
The aim of the study is to examine the effect of a novel test compound on d-amphetamine induced hyperactivity in rats. Schizophrenia is a complex multifactorial disease that cannot be fully represented by a single experimental procedure. Antipsychotic-like behaviour was assessed in rats by the inhibition of hyperactivity (or hyperlocomotion) elicited by d-amphetamine. This procedure is sensitive to clinically relevant dopamine receptor antagonists and is therefore considered suitable for comparing muscarinic agonists that influence dopaminergic signalling. […] Statistical analysis typically involved three-way analysis of covariance or robust regression with treatment, day and rack as factors and activity during the 30 minutes prior to treatment as a covariate, followed by appropriate multiple comparison tests. A P value of <0.05 was considered statistically significant and is marked accordingly in all subsequent figures.

[2] = biological target: T1, human muscarinic M4 receptor (Homo sapiens, UniProt P08173); test: Alphascreen Surefire phospho-ERK1/2 functional assay, M4; type: cell-based; details: CHO cells stably expressing human M4
T1 construct: expressed in transfected cells
T1 sequence (P08173 1-479): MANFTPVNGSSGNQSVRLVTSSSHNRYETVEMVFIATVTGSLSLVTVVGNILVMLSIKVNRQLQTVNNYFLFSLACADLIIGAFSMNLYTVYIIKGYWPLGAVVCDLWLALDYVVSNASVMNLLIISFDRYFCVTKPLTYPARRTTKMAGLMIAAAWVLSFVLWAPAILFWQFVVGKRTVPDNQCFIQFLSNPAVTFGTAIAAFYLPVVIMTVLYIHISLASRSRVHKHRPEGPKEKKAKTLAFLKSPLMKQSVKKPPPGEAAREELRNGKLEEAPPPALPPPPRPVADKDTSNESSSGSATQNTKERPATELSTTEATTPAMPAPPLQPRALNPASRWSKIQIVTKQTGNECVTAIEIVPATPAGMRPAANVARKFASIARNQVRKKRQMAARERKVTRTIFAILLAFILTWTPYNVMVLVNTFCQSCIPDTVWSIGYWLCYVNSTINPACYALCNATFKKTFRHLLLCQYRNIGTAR

[3] = biological target: T2, human muscarinic M1 receptor (Homo sapiens, UniProt P11229); test: Alphascreen Surefire phospho-ERK1/2 functional assay, M1; type: cell-based; details: CHO cells stably expressing human M1
T2 construct: expressed in transfected cells
T2 sequence (P11229 1-460): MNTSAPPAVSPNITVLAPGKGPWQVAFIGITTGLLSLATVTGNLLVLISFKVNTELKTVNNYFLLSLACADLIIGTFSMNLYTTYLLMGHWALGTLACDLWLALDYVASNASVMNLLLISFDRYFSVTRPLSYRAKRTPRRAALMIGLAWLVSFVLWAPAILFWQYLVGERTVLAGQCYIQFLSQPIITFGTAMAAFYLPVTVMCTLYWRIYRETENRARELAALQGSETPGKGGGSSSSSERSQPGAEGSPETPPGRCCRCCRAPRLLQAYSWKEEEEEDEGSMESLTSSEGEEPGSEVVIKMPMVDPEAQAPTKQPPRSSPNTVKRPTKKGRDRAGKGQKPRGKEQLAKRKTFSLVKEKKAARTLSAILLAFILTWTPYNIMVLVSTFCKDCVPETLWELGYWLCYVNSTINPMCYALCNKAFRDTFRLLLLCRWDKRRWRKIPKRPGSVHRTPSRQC
Experimental: (§1) CHO cells stably expressing the human muscarinic M1, M2, M3 or M4 receptor were plated (25K/well) onto 96-well tissue culture plates in MEM-alpha+10% dialysed FBS. Once adhered, cells were serum-starved overnight. Agonist stimulation was performed by the addition of 5 μL agonist to the cells for 5 min (37° C.). Media was removed and 50 μL of lysis buffer added. After 15 min, a 4 μL sample was transferred to 384-well plate and 7 μL of detection mixture added. Plates were incubated for 2 h with gentle agitation in the dark and then read on a PHERAstar plate reader.
(§2) pEC50 and Emax figures were calculated from the resulting data for each receptor subtype.

[4] = biological target: T3, human muscarinic M2 receptor (Homo sapiens, UniProt P08172); test: Alphascreen Surefire phospho-ERK1/2 functional assay, M2; details: CHO cells stably expressing human M2
T3 sequence (P08172 1-466): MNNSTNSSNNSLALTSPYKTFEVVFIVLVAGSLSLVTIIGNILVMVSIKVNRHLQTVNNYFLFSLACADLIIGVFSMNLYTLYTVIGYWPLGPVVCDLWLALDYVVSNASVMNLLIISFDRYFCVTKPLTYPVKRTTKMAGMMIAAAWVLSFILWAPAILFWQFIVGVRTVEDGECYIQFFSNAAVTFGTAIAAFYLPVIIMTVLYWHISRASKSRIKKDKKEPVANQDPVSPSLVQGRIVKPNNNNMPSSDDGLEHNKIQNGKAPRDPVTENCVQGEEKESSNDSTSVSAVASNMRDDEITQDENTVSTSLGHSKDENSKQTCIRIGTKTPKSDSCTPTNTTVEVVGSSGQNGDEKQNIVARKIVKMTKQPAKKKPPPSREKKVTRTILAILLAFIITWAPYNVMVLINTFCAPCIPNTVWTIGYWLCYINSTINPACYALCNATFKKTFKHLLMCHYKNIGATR

[5] = biological target: human muscarinic M3 receptor (Homo sapiens, UniProt P20309); test: Alphascreen Surefire phospho-ERK1/2 functional assay, M3; details: CHO cells stably expressing human M3
Chain of human muscarinic M3 receptor (P20309 whole entry): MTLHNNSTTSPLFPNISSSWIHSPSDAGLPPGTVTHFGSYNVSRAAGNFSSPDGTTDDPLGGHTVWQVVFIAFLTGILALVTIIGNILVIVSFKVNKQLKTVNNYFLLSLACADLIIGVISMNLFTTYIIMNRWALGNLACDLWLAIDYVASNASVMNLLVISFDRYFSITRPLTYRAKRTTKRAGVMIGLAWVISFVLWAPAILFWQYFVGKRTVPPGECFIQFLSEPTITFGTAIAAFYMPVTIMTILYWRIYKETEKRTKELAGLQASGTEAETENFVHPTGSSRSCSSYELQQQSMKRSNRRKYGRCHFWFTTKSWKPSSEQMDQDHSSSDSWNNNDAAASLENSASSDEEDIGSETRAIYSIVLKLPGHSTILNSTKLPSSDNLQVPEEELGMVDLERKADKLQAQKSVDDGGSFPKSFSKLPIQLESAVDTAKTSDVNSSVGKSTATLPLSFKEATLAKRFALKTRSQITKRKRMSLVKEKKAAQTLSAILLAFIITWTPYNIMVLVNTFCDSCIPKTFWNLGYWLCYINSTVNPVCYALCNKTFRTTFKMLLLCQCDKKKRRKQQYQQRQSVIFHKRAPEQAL
Experimental: as §1, §2

In the case of `CCCCCCOc1nsnc1C1=CCCN(C)C1` [xanomeline], the d-amphetamine induced hyperactivity [1] is reported as “significantly reduce”.
For `CCCN1C(=O)OC2(CCN(C3CC4(CCN(C(=O)OCC)C4)C3)CC2)C1CC` (single isomer, unassigned) [4-23 Isomer 4], the “M4 % Emax cf. ACh” value ([2]; Emax relative to ACh) was “(109) %”, the EC50 ([2]; phospho-ERK1/2, read-out: pEC50 M4 (converted)) was 10 nM and the “M1 % Emax cf. ACh” value ([3]; Emax relative to ACh) was “(96) %”. The EC50 ([3]; phospho-ERK1/2, read-out: pEC50 M1 (converted)) was 316 nM, the “M2 % Emax cf. ACh” value ([4]; Emax relative to ACh) was “(8) %” and the “pEC50 M2” value ([4]; phospho-ERK1/2) was under 4.7. The “M3 % Emax cf. ACh” value ([5]; Emax relative to ACh) was “(3) %” and the “pEC50 M3” value ([5]; phospho-ERK1/2) was under 4.7.
